biological target: T1, His tagged recombinant human tissue transglutaminase (His6-rh-TG2) (Homo sapiens, UniProt P21980); experiment: Inactivation of human tissue transglutaminase, fluorescence assay with Abz-APE(CAD-DNP)QEA-OH; format: biochemical; details: substrate Abz-APE(CAD-DNP)QEA-OH, 37° C., pH=7.5
T1 construct: purchased Zedira T002
T1 sequence (P21980 1-687): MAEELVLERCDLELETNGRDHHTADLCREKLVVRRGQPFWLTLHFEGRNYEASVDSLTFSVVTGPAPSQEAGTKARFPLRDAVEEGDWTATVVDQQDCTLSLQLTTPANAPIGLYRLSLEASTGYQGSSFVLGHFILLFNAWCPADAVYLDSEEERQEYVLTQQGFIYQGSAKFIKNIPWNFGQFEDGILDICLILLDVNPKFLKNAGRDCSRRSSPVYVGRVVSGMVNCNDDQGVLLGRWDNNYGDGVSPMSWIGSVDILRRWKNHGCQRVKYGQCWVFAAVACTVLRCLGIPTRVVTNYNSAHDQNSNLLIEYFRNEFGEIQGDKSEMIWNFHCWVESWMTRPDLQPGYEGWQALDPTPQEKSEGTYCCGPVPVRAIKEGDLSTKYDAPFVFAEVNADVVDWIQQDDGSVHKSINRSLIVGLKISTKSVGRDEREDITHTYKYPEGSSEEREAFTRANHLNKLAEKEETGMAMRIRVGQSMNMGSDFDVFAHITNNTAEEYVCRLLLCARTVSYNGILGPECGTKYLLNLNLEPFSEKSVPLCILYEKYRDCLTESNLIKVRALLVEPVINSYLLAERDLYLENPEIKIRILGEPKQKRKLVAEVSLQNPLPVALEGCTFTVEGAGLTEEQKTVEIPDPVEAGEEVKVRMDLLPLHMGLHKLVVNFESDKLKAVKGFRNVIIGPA
Protocol: General Method for Inactivation of Human Tissue Transglutaminase
250 μg lyophilized His tagged recombinant human tissue transglutaminase (His6-rh-TG2, Zedira product T002) are reconstituted by adding 150 μl water (resulting buffer 50 mM NaH2PO4, 150 mM NaCl, pH=8.0).
A 10 mM inhibitor stock solution in DMSO is prepared and is diluted with buffer (50 mM Tris-HCl, 10 mM CaCl2, 5 mM DTT, pH=7.5) each to the twentyfold of the concentration desired in the preparation (but at least 1/50 dilution resulting in a 2% DMSO concentration).
900 μl of an assay-solution consisting of 55.56 mM Tris, 11.11 mM CaCl2, 0.11% PEG8000, 5.56 mM DTT, 5.56 mM glycine methyl ester and 50 μM Abz-APE(CAD-DNP)QEA-OH, (Zedira product A102; patent No.: EP 1781807B1), pH=7.5 are added to a cuvette and heated in a measuring cell of a spectrophotometer to 37° C. 50 μl of the particular inhibitor solution are added to this solution (resulting in a concentration of less than 0.2% DMSO in the mixture).
7 μl of the transglutaminase solution reconstituted above are diluted with 51 μl buffer (50 mM Tris, 100 mM NaCl, 5 mM DTT, pH=7.5). 50 μl of this enzyme solution (10 μg His6-rhTG2) are added to the assay-solution containing the particular inhibitor concentration. It is incubated 5 min at 37° C. before measuring starts (λexc=313 nm and λem=418 nm, t=15 to 30 min).
The evaluation of the resulting enzyme activity is done using the slope of the straight line obtained by the increase in fluorescence.
To determine the non-inhibited enzyme activity, DMSO instead of inhibitor stock solution is used. IC50 values are determined by plotting the resulting enzyme activity against the logarithm of the inhibitor concentration. IC50 is defined as the concentration of inhibitor resulting in 50% of enzyme activity.

Row | IC50 | SMILES
1 | 54700 nM | CCC(CC)CNC(=O)Cn1cccc(NC(=O)[C@@H](CC/C=C/C(=O)OC)NC(=O)c2cncn2C)c1=O [A76, (R,E)-Methyl 7-(1-(2-(2-ethylbutylamino)-2-oxoethyl)-2-oxo-1,2-dihydropyridin-3-ylamino)-6-(1-methyl-1H-imidazole-5-carboxamido)-7-oxohept-2-enoate]
2 | 115 nM | CCOC(=O)/C=C/CC[C@H](NC(C)=O)C(=O)Nc1cccn(CC(=O)NCCC(C)(C)C)c1=O [A39, (S,E)-Ethyl 6-acetamido-7-(1-(2-(3,3-dimethylbutylamino)-2-oxoethyl)-2-oxo-1,2-dihydropyridin-3-ylamino)-7-oxohept-2-enoate]
3 | 240 nM | CCOC(=O)/C=C/CC[C@H](NC(=O)CCC(=O)O)C(=O)Nc1cccn(CC(=O)NCc2ccccc2C(F)(F)F)c1=O [A44, (S,E)-4-(7-Ethoxy-1,7-dioxo-1-(2-oxo-1-(2-oxo-2-(2-(trifluoromethyl)benzylamino)ethyl)-1,2-dihydropyridin-3-ylamino)hept-5-en-2-ylamino)-4-oxobutanoic acid]
4 | 310 nM | COC(=O)/C=C/CC[C@H](NC(C)=O)C(=O)Nc1cccn(CC(=O)N2CCCC(C(F)(F)F)C2)c1=O (stereo partly drawn) [A66, (6S,E)-Methyl 6-acetamido-7-oxo-7-(2-oxo-1-(2-oxo-2-(3-(trifluoromethyl)piperidin-1-yl)ethyl)-1,2-dihydropyridin-3-ylamino)hept-2-enoate]
5 | 92 nM | CCOC(=O)/C=C/CC[C@H](NC(=O)c1ncsc1C)C(=O)Nc1cccn(CC(=O)NCCC(C)C)c1=O [A15, (S,E)-Ethyl 7-(1-(2-(isopentylamino)-2-oxoethyl)-2-oxo-1,2-dihydropyridin-3-ylamino)-6-(5-methylthiazole-4-carboxamido)-7-oxohept-2-enoate]
6 | 145 nM | CCOC(=O)/C=C/CC[C@H](NC(=O)CCC(=O)O)C(=O)Nc1cccn(CC(=O)NCCC(CC)CC)c1=O [A43, (S,E)-4-(7-Ethoxy-1-(1-(2-(3-ethylpentylamino)-2-oxoethyl)-2-oxo-1,2-dihydropyridin-3-ylamino)-1,7-dioxohept-5-en-2-ylamino)-4-oxobutanoic acid]
7 | 340 nM | CCOC(=O)/C=C/CC[C@H](NC(=O)CCC(=O)O)C(=O)Nc1cccn(CC(=O)NCc2ccc(C(F)(F)F)cc2)c1=O [A37, (S,E)-4-(7-Ethoxy-1,7-dioxo-1-(2-oxo-1-(2-oxo-2-(4-(trifluoromethyl)benzylamino)ethyl)-1,2-dihydropyridin-3-ylamino)hept-5-en-2-ylamino)-4-oxobutanoic acid]
8 | 3300 nM | CCOC(=O)/C=C/CC[C@H](NC(C)=O)C(=O)Nc1cccn(CC(=O)NCCN2CCCC2)c1=O [A46, (S,E)-Ethyl 6-acetamido-7-oxo-7-(2-oxo-1-(2-oxo-2-(2-(pyrrolidin-1-yl)ethylamino)ethyl)-1,2-dihydropyridin-3-ylamino)hept-2-enoate]
9 | 627 nM | CC(=O)N[C@@H](CC/C=C/C(=O)OCc1ccccc1)C(=O)Nc1cccn(CC(=O)NCCC(C)C)c1=O [A78, (S,E)-Benzyl 6-acetamido-7-(1-(2-(isopentylamino)-2-oxoethyl)-2-oxo-1,2-dihydropyridin-3-ylamino)-7-oxohept-2-enoate]
10 | 640 nM | CCOC(=O)/C=C/CC[C@H](NC(=O)CCC(=O)O)C(=O)Nc1cccn(CC(=O)N[C@H](CC(C)C)C(=O)OC)c1=O [A34, 4-((S,E)-7-Ethoxy-1-(1-(2-((R)-1-methoxy-4-methyl-1-oxopentan-2-ylamino)-2-oxoethyl)-2-oxo-1,2-dihydropyridin-3-ylamino)-1,7-dioxohept-5-en-2-ylamino)-4-oxobutanoic acid]
11 | 700 nM | CCOC(=O)/C=C/CC[C@H](NC(C)=O)C(=O)Nc1cccn(CC(=O)N2CCCC(C)C2)c1=O (stereo partly drawn) [A52, (6S,E)-Ethyl 6-acetamido-7-(1-(2-(3-methylpiperidin-1-yl)-2-oxoethyl)-2-oxo-1,2-dihydropyridin-3-ylamino)-7-oxohept-2-enoate]
12 | 100 nM | CCOC(=O)/C=C/CC[C@H](NC(=O)OCc1ccccc1)C(=O)Nc1ccc(C)n(CC(=O)NCCC(C)C)c1=O [A2, (S,E)-Ethyl 6-(benzyloxycarbonylamino)-7-(1-(2-(isopentylamino)-2-oxoethyl)-6-methyl-2-oxo-1,2-dihydropyridin-3-ylamino)-7-oxohept-2-enoate]
13 | 63 nM | CCOC(=O)/C=C/CC[C@H](NC(=O)c1cc(C(F)(F)F)cc(C(F)(F)F)c1)C(=O)Nc1cccn(CC(=O)NCCC(C)C)c1=O [A17, (S,E)-Ethyl 6-(3,5-bis(trifluoromethyl)benzamido)-7-(1-(2-(isopentylamino)-2-oxoethyl)-2-oxo-1,2-dihydropyridin-3-ylamino)-7-oxohept-2-enoate]
14 | 191 nM | CCOC(=O)/C=C/CC[C@H](NC(C)=O)C(=O)Nc1cccn(CC(=O)NCC(C)C)c1=O [A54, (S,E)-Ethyl 6-acetamido-7-(1-(2-(isobutylamino)-2-oxoethyl)-2-oxo-1,2-dihydropyridin-3-ylamino)-7-oxohept-2-enoate]
15 | 194 nM | CCOC(=O)/C=C/CC[C@H](NC(=O)CCC(=O)O)C(=O)Nc1cccn(CC(=O)N[C@@H](CC(C)C)C(=O)OC)c1=O [A32, 4-((S,E)-7-Ethoxy-1-(1-(2-((S)-1-methoxy-4-methyl-1-oxopentan-2-ylamino)-2-oxoethyl)-2-oxo-1,2-dihydropyridin-3-ylamino)-1,7-dioxohept-5-en-2-ylamino)-4-oxobutanoic acid]
16 | 55 nM | CCC(CC)CNC(=O)Cn1cccc(NC(=O)[C@H](CC/C=C/C(=O)OC)NC(=O)c2cccnc2)c1=O [A67, (S,E)-Methyl 7-(1-(2-(2-ethylbutylamino)-2-oxoethyl)-2-oxo-1,2-dihydropyridin-3-ylamino)-6-(nicotinamido)-7-oxohept-2-enoate]
17 | 139 nM | CCOC(=O)/C=C/CC[C@H](NC(=O)CCNC(N)=O)C(=O)Nc1cccn(CC(=O)NCCC(C)C)c1=O [A56, (S,E)-Ethyl 7-(1-(2-(isopentylamino)-2-oxoethyl)-2-oxo-1,2-dihydropyridin-3-ylamino)-7-oxo-6-(3-ureidopropanamido)hept-2-enoate]
18 | 166 nM | CCOC(=O)/C=C/CC[C@H](NC(=O)CCC(=O)O)C(=O)Nc1cccn(CC(=O)N[C@@H](CC(C)(C)C)C(=O)OC)c1=O [A41, 4-((S,E)-7-Ethoxy-1-(1-(2-((S)-1-methoxy-4,4-dimethyl-1-oxopentan-2-ylamino)-2-oxoethyl)-2-oxo-1,2-dihydropyridin-3-ylamino)-1,7-dioxohept-5-en-2-ylamino)-4-oxobutanoic acid]
19 | 130 nM | CCOC(=O)/C=C/CC[C@H](NC(=O)OCc1ccccc1)C(=O)Nc1ccc(C)n(CC(=O)NC(CC(=O)O)CC(C)C)c1=O (stereo partly drawn) [A5, 3-(2-(3-((S,E)-2-(Benzyloxycarbonylamino)-7-ethoxy-7-oxohept-5-enamido)-6-methyl-2-oxopyridin-1(2H)-yl)acetamido)-5-methylhexanoic acid]
20 | 532 nM | CC(=O)N[C@@H](CC/C=C/C(=O)OC(C)C)C(=O)Nc1cccn(CC(=O)NCCC(C)C)c1=O [A6, (S,E)-isopropyl 6-acetamido-7-(1-(2-(isopentylamino)-2-oxoethyl)-2-oxo-1,2-dihydropyridin-3-ylamino)-7-oxohept-2-enoate]
21 | 469 nM | CC(=O)N[C@@H](CC/C=C/S(C)(=O)=O)C(=O)Nc1cccn(CC(=O)NCCC(C)C)c1=O [A77, (S,E)-2-acetamido-N-(1-(2-(isopentylamino)-2-oxoethyl)-2-oxo-1,2-dihydropyridin-3-yl)-6-(methylsulfonyl)hex-5-enamide]
22 | 480 nM | CCOC(=O)/C=C/CC[C@H](NC(=O)CCC(=O)O)C(=O)Nc1cccn(CC(=O)NCCc2cccs2)c1=O [A47, (S,E)-4-(7-Ethoxy-1,7-dioxo-1-(2-oxo-1-(2-oxo-2-(2-(thiophen-2-yl)ethylamino)ethyl)-1,2-dihydropyridin-3-ylamino)hept-5-en-2-ylamino)-4-oxobutanoic acid]
